15 compounds from PubChem BioAssay AID248 (DTP/NCI, 2004) can be followed below.

This assay deals with L1210 leukemia ip in BDF1 mice, survival T/C. Description: NCI In Vivo Anticancer Drug Screen. Data for tumor model L1210 Leukemia (intraperitoneal) in B6D2F1 (BDF1) mice. As to conditions: endpoint: mean survival time, higher = longer survival. An outline of the steps: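 Tumor was transplanted into mice, which were then dosed with test compound or vehicle alone. Survival was recorded for each group, and the treated figure was expressed relative to the control figure.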

[1] abbreviates: dose: 50.0 mg/kg/injection, schedule: Q01DX009 (ip), vehicle: saline with Tween-80.
Setting [2] is: dose: 200.0 mg/kg/injection, schedule: Q01DX009 (ip), vehicle: saline with Tween-80.
The mark [3] stands for this setting: dose: 100.0 mg/kg/injection, schedule: Q01DX001 (ip), vehicle: saline with Tween-80.
The mark [4] stands for this setting: dose: 50.0 mg/kg/injection, schedule: Q01DX009 (ip), vehicle: saline.
Where [5] appears, read: dose: 100.0 mg/kg/injection, schedule: Q01DX009 (ip), vehicle: saline.
[6] abbreviates: dose: 100.0 mg/kg/injection, schedule: Q04DX003 (ip), vehicle: saline.
[7] abbreviates: dose: 200.0 mg/kg/injection, schedule: Q01DX009 (ip), vehicle: saline.
Setting [8] is: dose: 200.0 mg/kg/injection, schedule: Q04DX003 (ip), vehicle: saline.
Where [9] appears, read: dose: 400.0 mg/kg/injection, schedule: Q04DX003 (ip), vehicle: saline.
The mark [10] stands for this setting: dose: 100.0 mg/kg/injection, schedule: Q04DX003 (ip), vehicle: saline with Tween-80.
Setting [11] is: dose: 200.0 mg/kg/injection, schedule: Q04DX003 (ip), vehicle: saline with Tween-80.
The mark [12] stands for this setting: dose: 400.0 mg/kg/injection, schedule: Q04DX003 (ip), vehicle: saline with Tween-80.

Values joined by “and” are separate entries in the source; they are usually repeats but may differ in a detail not shown here. Identical values can stand only once. Inconclusive results and toxic doses are left out.

For the compound `ClC1=C(Cl)C2(Cl)CC1(Cl)C1OC12` (stereo not drawn), the T/C (dose: 12.5 mg/kg/injection, schedule: Q01DX009 (ip), vehicle: saline with Tween-80) is 104 % of control; the T/C (dose: 25.0 mg/kg/injection, schedule: Q01DX009 (ip), vehicle: saline with Tween-80) was 104 % of control; the T/C under setting [1] is 96 % of control.
Take `CC1CCC(O)(C(C)(C(=O)O)c2ccccc2)CC1` (stereo not drawn): the T/C reads like this: (dose: 55.0 mg/kg/injection, schedule: Q01DX Z (ip), vehicle: methylcellulose (MC)) 96 % of control; (dose: 83.0 mg/kg/injection, schedule: Q01DX Z (ip), vehicle: methylcellulose (MC)) 105 % of control; (dose: 125.0 mg/kg/injection, schedule: Q01DX Z (ip), vehicle: methylcellulose (MC)) 93 % of control.
Take `COC(=O)C(O)c1ccc2c(c1)OCO2` (stereo not drawn): the T/C is 97 % of control (dose: 100.0 mg/kg/injection, schedule: Q04DX003 (ip), vehicle: saline sonified); 97 % of control (dose: 200.0 mg/kg/injection, schedule: Q04DX003 (ip), vehicle: saline sonified); 93 % of control (dose: 400.0 mg/kg/injection, schedule: Q04DX003 (ip), vehicle: saline sonified).
With `COC(=O)Cc1ccc(Br)cc1`, the T/C reads like this: under setting [1], 106 % of control; (dose: 100.0 mg/kg/injection, schedule: Q01DX009 (ip), vehicle: saline with Tween-80) 98 % of control; under setting [2], 88 % of control.
For `COc1cc2c(c(OC)c1OC)-c1ccc(SC)c(=O)cc1C(N=C(NC1OCC(OC(C)=O)C(OC(C)=O)C1OC(C)=O)SN(NC(=O)OCc1ccccc1)C(=O)OCc1ccccc1)CC2` (stereo not drawn), the T/C (dose: 25.0 mg/kg/injection, schedule: Q01DX001 (ip), vehicle: saline with Tween-80) is 95 % of control; the T/C (dose: 50.0 mg/kg/injection, schedule: Q01DX001 (ip), vehicle: saline with Tween-80) was 95 % of control; the T/C under setting [3] was 100 % of control.
As for `O=C1OC(C(O)C(O)CO)C(O)C1O` (stereo not drawn), the T/C is, setting by setting: under setting [4], 92 % of control; under setting [5], 92 % of control; under setting [6], 92 % of control; under setting [7], 97 % of control; under setting [8], 94 % of control; under setting [9], 100 % of control.
Take `O=C(N/N=C\c1ccc(Cl)cc1Cl)C1CC1`: the T/C was 97 % of control (dose: 15.0 mg/kg/injection, schedule: Q01DX Z (ip), vehicle: carboxymethylcellulose (CMC)); 92 % of control (dose: 30.0 mg/kg/injection, schedule: Q01DX Z (ip), vehicle: carboxymethylcellulose (CMC)); 98 % of control (dose: 30.0 mg/kg/injection, schedule: Q01DX Z (oral), vehicle: carboxymethylcellulose (CMC)); 95 % of control (dose: 60.0 mg/kg/injection, schedule: Q01DX Z (ip), vehicle: carboxymethylcellulose (CMC)); 100 % of control (dose: 60.0 mg/kg/injection, schedule: Q01DX Z (oral), vehicle: carboxymethylcellulose (CMC)); 121 % of control (dose: 120.0 mg/kg/injection, schedule: Q01DX Z (oral), vehicle: carboxymethylcellulose (CMC)).
For `CC(C)=C(c1ccc(Cl)cc1)c1c(Cl)ncnc1Cl`, the T/C was 101 % of control under setting [10], 102 % of control under setting [11] and 104 % of control under setting [12].
Consider `O=[N+]([O-])c1cccc(S(=O)(=O)O)c1`, for which the T/C is, setting by setting: under setting [4], 93 % of control; (dose: 50.0 mg/kg/injection, schedule: Q04DX003 (ip), vehicle: saline) 97 % of control; under setting [5], 87 % of control; under setting [6], 96 % of control and 100 % of control; under setting [7], 93 % of control; under setting [8], 100 % of control and 102 % of control. In addition, under setting [9], the T/C is 90 % of control.
Turning to `CCCCN1C(=O)c2ccncc2C1=O`, the T/C runs as follows: under setting [3], 95 % of control; under setting [10], 98 % of control; (dose: 200.0 mg/kg/injection, schedule: Q01DX001 (ip), vehicle: saline with Tween-80) 98 % of control; under setting [11], 103 % of control; (dose: 400.0 mg/kg/injection, schedule: Q01DX001 (ip), vehicle: saline with Tween-80) 111 % of control; under setting [12], 100 % of control.
On to `CCCCN(C)N=Nc1ccc([N+](=O)[O-])cc1C(N)=O`, for which the T/C is 100 % of control (dose: 100.0 mg/kg/injection, schedule: Q01DX001 (ip), vehicle: other); 110 % of control under setting [10]; 105 % of control (dose: 200.0 mg/kg/injection, schedule: Q01DX001 (ip), vehicle: other); 122 % of control under setting [2]; 109 % of control under setting [11]; 160 % of control (dose: 266.0 mg/kg/injection, schedule: Q01DX009 (ip), vehicle: saline with Tween-80). Further, the T/C reads like this: (dose: 400.0 mg/kg/injection, schedule: Q01DX001 (ip), vehicle: other) 110 % of control; (dose: 400.0 mg/kg/injection, schedule: Q01DX009 (ip), vehicle: saline with Tween-80) 165 % of control and 170 % of control; under setting [12], 115 % of control; (dose: 600.0 mg/kg/injection, schedule: Q01DX009 (ip), vehicle: saline with Tween-80) 200 % of control.
Regarding `CC(C)=NC(=O)NO.[Cl][Co][Cl]`, the T/C is, setting by setting: (dose: 9.4 mg/kg/injection, schedule: Q04DX003 (ip), vehicle: saline) 100 % of control; (dose: 18.75 mg/kg/injection, schedule: Q04DX003 (ip), vehicle: saline) 107 % of control; (dose: 37.5 mg/kg/injection, schedule: Q04DX003 (ip), vehicle: saline) 107 % of control; (dose: 75.0 mg/kg/injection, schedule: Q01DX001 (ip), vehicle: saline) 103 % of control.
With `c1ccc2c3csc4ccccc4c-3nc2c1`, the T/C reads like this: (dose: 6.25 mg/kg/injection, schedule: Q01DX009 (ip), vehicle: saline) 97 % of control; (dose: 12.5 mg/kg/injection, schedule: Q01DX009 (ip), vehicle: saline) 101 % of control; (dose: 12.5 mg/kg/injection, schedule: Q04DX003 (ip), vehicle: Klucel (hydroxypropylcellulose) (HPC)) 94 % of control; (dose: 25.0 mg/kg/injection, schedule: Q01DX009 (ip), vehicle: saline) 103 % of control; (dose: 25.0 mg/kg/injection, schedule: Q04DX003 (ip), vehicle: Klucel (hydroxypropylcellulose) (HPC)) 94 % of control; (dose: 35.0 mg/kg/injection, schedule: Q01DX009 (ip), vehicle: Klucel (hydroxypropylcellulose) (HPC)) 91 % of control.
`Cn1/c(=N/N=C(N)N)ccc2ccccc21`: the T/C was 100 % of control (dose: 15.0 mg/kg/injection, schedule: Q01DX Z (ip), vehicle: methylcellulose (MC)); 108 % of control (dose: 30.0 mg/kg/injection, schedule: Q01DX Z (ip), vehicle: methylcellulose (MC)); 95 % of control (dose: 30.0 mg/kg/injection, schedule: Q01DX Z (oral), vehicle: methylcellulose (MC)); 107 % of control (dose: 60.0 mg/kg/injection, schedule: Q01DX Z (ip), vehicle: methylcellulose (MC)); 101 % of control (dose: 60.0 mg/kg/injection, schedule: Q01DX Z (oral), vehicle: methylcellulose (MC)); 103 % of control (dose: 120.0 mg/kg/injection, schedule: Q01DX Z (ip), vehicle: methylcellulose (MC)). Further, the T/C reads like this: (dose: 120.0 mg/kg/injection, schedule: Q01DX Z (oral), vehicle: methylcellulose (MC)) 97 % of control; (dose: 240.0 mg/kg/injection, schedule: Q01DX Z (ip), vehicle: methylcellulose (MC)) 98 % of control; (dose: 240.0 mg/kg/injection, schedule: Q01DX Z (oral), vehicle: methylcellulose (MC)) 95 % of control; (dose: 375.0 mg/kg/injection, schedule: Q01DX Z (oral), vehicle: methylcellulose (MC)) 95 % of control.
As for `Clc1cc(Cl)nc(N2CC2)n1`, the T/C (dose: 0.02 mg/kg/injection, schedule: Q01DX Z (ip), vehicle: methylcellulose (MC)) was 91 % of control; the T/C (dose: 6.25 mg/kg/injection, schedule: Q01DX009 (ip), vehicle: acetone) is 108 % of control; the T/C (dose: 12.5 mg/kg/injection, schedule: Q01DX009 (ip), vehicle: acetone) was 111 % of control; the T/C (dose: 12.5 mg/kg/injection, schedule: Q04DX003 (ip), vehicle: saline) is 98 % of control; the T/C (dose: 25.0 mg/kg/injection, schedule: Q04DX003 (ip), vehicle: saline) is 92 % of control.
